Counter-ions that a name gives are not always drawn. Bridge positions count the residues as written; N and C are the ends. Square brackets hold non-standard residues; d marks the D form. Peptide text beside a SMILES is read from it. * marks the point of attachment. X1 = CC[C@H](C)CCCCC(=O)*; Dab = NCC[C@H](N)C(=O)O
Test: Tolerability of subcutaneous dosing in infected neutropenic mice
Assay type: in vivo
Procedure: Dose-fractionation studies were performed for E. coli ATCC 25922 and K. pneumoniae 104 in the thigh infection model. Two hours after infection, treatment with polymyxin B was administered subcutaneously over 24 h at the following dosing regimens: 4–128 mg/kg q6h [total daily dose (TDD) 16–512 mg/kg]; 8–256 mg/kg q12h (TDD 16–512 mg/kg); 256–512 mg/kg q24h (TDD 256–512 mg/kg).
For dose–response studies, a 6 hourly dosing regimen of 1–32 mg/kg was studied in the thigh infection model. Mice were infected with E. coli […], 15, 51 or 71 or K. pneumoniae ATCC 43816, 17, 58 or 74.
Animals were humanely euthanized 24 h (t = 24 h) after the first dose, unless the welfare of the animals necessitated earlier termination, following animal welfare regulations. Excised thighs were transferred to a pre-cooled 14 mL polypropylene tube containing 2 mL of PBS and were homogenized using a T25 ULTRA-TURRAX (IKA-Werke GmbH & Co, Staufen, Germany). A 10-fold dilution series was prepared and 3 × 10 μL was plated per dilution. The following day, colonies were counted and the number of cfu per thigh was calculated.

In the case of `CC[C@H](C)CCCCC(=O)N[C@@H](CCN)C(=O)N[C@H](C(=O)N[C@@H](CCN)C(=O)N[C@H]1CCNC(=O)[C@H]([C@@H](C)O)NC(=O)[C@H](CCN)NC(=O)[C@H](CCN)NC(=O)[C@H](CC(C)C)NC(=O)[C@@H](Cc2ccccc2)NC(=O)[C@H](CCN)NC1=O)[C@@H](C)O` [polymyxin B, Polymyxin B sulphate salt] (X1-[Dab]T[Dab][Dab][Dab][dF]L[Dab][Dab]T; lactam 4-C), the “Mice in which the last (fourth) administration was not tolerated” value (32 mg/kg q6h (TDD 128 mg/kg) s.c.) is reported as 2/4 and the Tolerability (doses >64 mg/kg s.c., dose fractionation studies, neutropenic infected mice) is reported as “not tolerated”.

Source: PMC10377753, “Pharmacokinetic and pharmacodynamic properties of polymyxin B in Escherichia coli and Klebsiella pneumoniae murine infection models” (Journal of Antimicrobial Chemotherapy, 2023)
